Values of other authors in EP4640076A1, “ORAL PRODUCT WITH FLAVOR EMULSION” (Nicoventures Trading Limited, priority 2024, dated 2025).
Like-named read-outs stand apart in the source and are kept apart here.

Key:
[1] = at 25°C; heptanal

Row | Compound | logP (resveratrol) | logP (heptanal) | vapor pressure [1] [mm Hg]
1 | Oc1ccc(/C=C/c2cc(O)cc(O)c2)cc1 [Resveratrol, 3,5,4'-trihydroxy-trans-stilbene] | 3.1 | – | –
2 | CCCCCCC=O [heptanal] | – | 2.44 | 3.85
